Experiments:
“intruder” rat = assay: social exploration test in rats; type: in vivo; conditions: vs vehicle
From the text: There remains a paucity of data investigating the anxiolytic potential of this rufinamide. Therefore the aim of the present study was to test the effect of rufinamide (FIG. 1, chemical structure of rufinamide) with regard to a possible facilitation of social behavior (anxiolytic-like effect) using the social exploration test in rats as a paradigm. The basis of this test is that when an adult “resident” rat is kept in social isolation for two weeks, its natural tendency to establish territorial defensive reactions is increased. […] Male adult Sprague Dawley rats (Ra238, OFA/IC strain, Iffa Credo, France) (“residents”) weighing 350-400 g and young Lister Hooded rats (li/ho, Harlan, The Netherlands) (“intruders”) weighing 100-120 g were used. “Intruders” were housed in pairs and the “residents” were individually housed for two weeks before the test in plastic cages (Macrolon, 42×26×15 cm). All animals lived in a room lit from 6 a.m. until 6 p.m. and had always free access to standard food and water. […]
Pairs consisting of one “intruder” rat and one “resident” rat were assigned at random to one of the experimental or the control groups. […] The duration of active approach behaviors of the “intruder” rat (sniffing, anogenital exploration, nosing, grooming, licking, playing) towards the “resident” was manually registered and cumulatively recorded over a period of 5 minutes. […]

[1] = test system: male OF-1 “intruder” mice; assay: Intruder test (social withdrawal of intruder mice); type: in vivo, mouse
Method: Rufinamide, a Na-channel blocker and anti-epileptic agent, and carbamazepine, an anticonvulsant employed to treat bipolar disorder, were given to male OF-1 “intruder” in oral-doses of 1/3/10 mg/kg, 1 hr before the animals were confronted with an individually-housed, aggressive, male OF-1 resident mouse. […] This increase in social investigation (sociotropic effect) was accompanied by a decrease in the frequency and duration of defensive ambivalence probably through competitive inhibition. No signs of motor stimulation were detected.
The Intruder test duplicates a territorial encounter between a territory holder (aggressive male) and a subordinate “intruder” mouse. […] In this test the intruders receive the treatment whereas the residents remain untreated. (Dixon, A. K., Huber, C., Lowe, D. J. Clin. Psychiatry. 55 (9) Suppl B, 4-7 (1994)). For purposes of this study, rufinamide and carbamazepine were given orally to intruder mice 1 hr before being introduced singly to aggressive residents using doses of ⅓ and 10 mg/kg.
Over 60 ethological elements describing the social and non-social behaviour of mice based on the ethogram originally proposed by Grant and Mackintosh (Grant, E. C. Mackintosh, J. H. Behaviour 21: 246-259 (1963) ) and classified according to 9 behavioural categories (Dixon, A. K., Huber, C., Fisch, H. U. Adv. Study. Behaviour. 19: 171-204 (1990)) form the rodent ethogram as used in this test (FIG. 3).

male OF-1 mice = assay: half-enclosed platform (HEP) test; type: in vivo, mouse; conditions: 0.32/1/3.2 and 10 mg/kg p.o., 1 hr before testing
From the text: Rufinamide and carbamazepine were compared in the half-enclosed platform (HEP) test. The test determines how drugs affect the exploratory behaviour of a mouse placed upon a novel, half-enclosed platform and gives information as to whether a drug is a stimulant, depressant or disinhibitory as with, for example the benzodiazepines which increase exploration of the platform. It is also useful for determining duration of action and dose-findings studies. The HEP is a further development of the simple elevated platform used by Kaesermann to assess anxiolytic properties of drugs (Ref. Käsermann H. P. (1986) Psychopharmacol. 89:31-37). In this study carbamazepine and rufinamide were tested in the same dose ranges i.e. 0.32/1/3.2 and 10 mg/kg p.o. of each were given to male OF-1 mice 1 hr before testing.
The ethogram used consists of 9 elements of exploratory behaviour two of which involve static postures i.e. immobility and stretched attend posture, the latter being an ambivalent element indicative of approach-avoidance conflict. These elements are immediately spontaneous and are not induced by either training or punishment procedures. Upright postures which are posturally demanding are useful to detect muscle relaxation e.g. rearing (FIG. 10).

[2] = 1/3/10 mg/kg oral, 1 hr before encounter

For `NC(=O)c1cn(Cc2c(F)cccc2F)nn1` [rufinamide, 1-(2,6-difluorobenzyl)-1H-1,2,3-triazole-4-carboxamide], the “time spent in social contact” value (“intruder” rat; rufinamide 0.3 mg/kg p.o., 1 hour after application) was “did not induce any significant change”, the “duration of social contacts of an intruder toward a resident rat” value (“intruder” rat; rufinamide 1, 3, 10, 30 and 100 mg/kg p.o., tested 1 hour after application, 5 min observation) was “significantly increased” and the “non-social (NS) behaviour, frequency” value ([1]; 1/3/10 mg/kg oral, 1 hr before 6 minute encounter) was “significant, dose-related increase”. For the same molecule, the “social investigation (SI)” value ([1]; 1/3/10 mg/kg oral, 1 hr before 6 minute encounter, frequency and duration) was “increased, albeit in a bell-shaped manner with only changes at 3 mg/kg attaining significance”, the “duration of defensive ambivalence (DA), arrested flight (AF) and escape” value [1, 2] was “significantly reduced but not uniformly” and the “frequencies of arrested flight and escape” value [1, 2] was “only reduced significantly at 1 mg/kg”. The “time spent in non-social activities” value [1, 2] was “only weakly following suit”, the “total number of ethological elements performed in the 6 minute encounter” value [1, 2] was “increased in a dose-related manner” and the “time spent in static flight (SF) postures” value ([1]; at 3 and 10 mg/kg oral, 1 hr before encounter) was “significant shortening”. The “dose which is sociotropic in the intruder test” value ([1]; oral) was 3 mg/kg, the “changes in durations of exploratory and stationary elements” value (male OF-1 mice) was “followed suit but rarely attained statistical significance” and the “duration of head raising in the open half” value (male OF-1 mice) was “increased”. The “duration of inactivity (sta) in the enclosed half” value (male OF-1 mice) was “shortened”, the “frequencies of stationary elements (Sta: sitting still, inactivity)” value (male OF-1 mice) was “decreased in a significant manner” and the “exploratory elements stretched attend posture (sap), head raising (hu) and forward locomotion (go), frequency” value (male OF-1 mice; dose-related) was “significantly increased”.

From patent US20090054414A1, “Rufinamide for the Treatment of Post-Traumatic Stress Disorder” (SYNOSIA THERAPEUTICS, priority 2007, published 2009)
